{"source": "paper PMC4700278", "about": "“Molecular and Biochemical Analysis of the Estrogenic and Proliferative Properties of Vitamin E Compounds” (Frontiers in Oncology, 2016)", "key": {"ERβ [1]": {"biological_target": "T1, ERβ (Homo sapiens, UniProt Q92731)", "T1 sequence (Q92731 whole entry)": "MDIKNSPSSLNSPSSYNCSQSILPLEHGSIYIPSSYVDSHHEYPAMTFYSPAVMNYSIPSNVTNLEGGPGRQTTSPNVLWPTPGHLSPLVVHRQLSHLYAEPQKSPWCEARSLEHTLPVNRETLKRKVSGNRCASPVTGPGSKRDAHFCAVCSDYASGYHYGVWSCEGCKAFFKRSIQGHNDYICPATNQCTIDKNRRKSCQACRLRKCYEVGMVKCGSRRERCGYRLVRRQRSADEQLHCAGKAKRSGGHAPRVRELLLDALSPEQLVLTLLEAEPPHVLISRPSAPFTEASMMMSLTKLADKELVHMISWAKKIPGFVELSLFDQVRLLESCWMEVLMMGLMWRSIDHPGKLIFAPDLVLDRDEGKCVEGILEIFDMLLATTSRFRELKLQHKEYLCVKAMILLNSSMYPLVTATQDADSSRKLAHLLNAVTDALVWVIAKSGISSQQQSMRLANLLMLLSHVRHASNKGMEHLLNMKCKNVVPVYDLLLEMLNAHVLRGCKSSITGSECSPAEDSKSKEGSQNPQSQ", "conditions": "HELN-ERβ cells; 500 μM", "source_text": "MELN cells were established by transfecting ER(+) MCF-7 cells with the ERE-β-globin-tk-Luc-SV-Neo plasmid ([36]). HELN cells were generated by transfection of ER(−) HeLa cells with this plasmid. The HELN-ERα, HELN-ERβ, HELN-ΔAB-ERα, and HELN-ΔAB-ERβ cell lines then underwent a second transfection with the corresponding pSG5-puro plasmids (pSG5-ERα-puro, pSG5-ERβ-puro, pSG5-ΔAB-ERα-puro, and pSG5-ΔAB-ERβ-puro, respectively) and expressed wild-type or mutated ERα or ERβ ([39], [40]). […] Luciferase activity was measured using the luciferase assay reagent (Promega), according to the manufacturer’s instructions. Protein concentrations were measured using the Bradford technique ([41]) to normalize the luciferase activity data. For each condition, average luciferase activity was calculated from the data of three independent wells.\nFigure 3 Measurement of estrogenicity of tocols in vitro. […] MCF-7 extracts were analyzed for the presence of ERα by western blotting using GAPDH as a control. […] The ratio of ERα to GAPDH levels in each experiment was determined densitometrically and normalized to control value (taken to be 1). […] The relative expression of TGFα, PR, and Ps2 (TFF1) after 16 h was analyzed by quantitative RT-PCR. […]"}, "PR": {"tested_on": "PR", "assay": "Quantitative RT-PCR of endogenous E2-regulated gene in MCF-7 cells", "assay_type": "cell-based, human", "conditions": "500 μM, 16 h", "method": "(§1) Figure 3 Measurement of estrogenicity of tocols in vitro. (A) Dose–response curve of the effect of tocols on MCF-7 cells stably transfected with the ERE-β-globin-tk-Luc plasmid (MELN cells). […] Data shown are the mean values ± SEM from three independent experiments. (C) δ-TP or δ-TT stabilized ER-α in MCF-7 cells. […] MCF-7 extracts were analyzed for the presence of ERα by western blotting using GAPDH as a control. […] The western blot shown is representative of three independent experiments. […] (D) Effect of δ-tocols on estrogen response element-dependent luciferase activity in HELN cells, which are HELA cells transfected with either fully functional ERα or ERβ or their mutated versions containing a deletion the AB domain (ΔAB). […] Data shown are the mean values ± SEM from three independent experiments. (E) δ-Tocols modulate the induction of endogenous genes under the control of ER. […] Cells were treated with 500 μM δ-tocols in the presence or in the absence of ICI. The relative expression of TGFα, PR, and Ps2 (TFF1) after 16 h was analyzed by quantitative RT-PCR. Data shown are the mean values ± SEM from three independent experiments."}, "Ps2 (TFF1)": {"tested_on": "Ps2 (TFF1)", "assay": "Quantitative RT-PCR of endogenous E2-regulated gene in MCF-7 cells", "assay_type": "cell-based, human", "conditions": "500 μM, 16 h", "method": "as §1"}, "TGFα": {"tested_on": "TGFα", "assay": "Quantitative RT-PCR of endogenous E2-regulated gene in MCF-7 cells", "assay_type": "cell-based, human", "conditions": "500 μM, 16 h", "method": "as §1"}, "ERβ [2]": {"biological_target": "T1, ERβ", "assay": "Estrogen receptor-binding assay, competition with [3H]-17β-estradiol", "parameters": "expressed in transfected cells; host or cells: Cos-7", "conditions": "extracts of cos-7 cells expressing human ERβ; 2 nM [3H]-E2; tocols 1 μM to 1 mM; N.M. = not measurable"}}}
{"compound": "CC(C)=CCC/C(C)=C/CC/C(C)=C/CC[C@]1(C)CCc2cc(O)cc(C)c2O1", "note": "[δ-TT, δ-tocotrienol]", "values": [{"measurement": "ER-dependent luciferase activity through ERβ", "setting": "ERβ [1]", "result": "activate ER-dependent luciferase activity"}, {"measurement": "transcription of PR (fold increase)", "setting": "PR", "result": 1.6, "unit": "fold"}, {"measurement": "transcription of Ps2 (fold increase)", "setting": "Ps2 (TFF1)", "result": "twofold"}, {"measurement": "transcription of TGFα (fold increase)", "setting": "TGFα", "result": 1.1, "unit": "fold"}, {"measurement": "IC50", "setting": "ERβ [2]", "result": "91 ± 7", "unit": "µM"}]}
